Results reported in patent US10052340B2 (XIAMEN UNIVERSITY, priority 2012, dated 2018).

Experiments:
wild-type C57BL/6J mice = test: Mouse trial, wild-type mice fed with high-fat diet; settings: high-fat diet, 1.3 mg/kg i.p. daily, 14 days
Description: (§1) Wild-type C57BL/6J mice of 9-10 weeks old, and FXR gene deletion homozygous mice (FXR^−/−) and diabetes and obesity mouse model mice (KK-Ay) with the same background are used, fed with high-fat diet (Research Diets, D12492), with free access to water, in SPF grade animal room in experimental animal center, Xiamen University. […] Intraperitoneal injection is performed one time at 9 o'clock every morning, continued for 14 days, and the mice are measured for body weight and the food intake every two days. At the end of 14 days, the mice are provided with free access to water, and after being hungry for 6 h, the mouse body weights are measured, and the percentage of the final body weight relative to the initial body weight before the treatment of the injection trial indicates the change of mouse body weight. Then blood is sampled from the eye balls, and sera are obtained by separation. The components in serum are detected by the following kits respectively: sugar-oxidase method (Beijing Applygen); insulin (Crystal Chem. Inc., USA); total cholesterol and cholesterol in high and low density lipoprotein (Bioassay Systems, USA); triglyceride (Beijing Applygen and WAKO Chemicals Inc., Japan); free fatty acids (Bioassay Systems, USA); and aspartate aminotransferase and alanine aminotransferase (Biosino Bio-technology and Science Inc., Beijing, China). Mouse liver is taken, a part of which is fixed with paraformaldehyde, and embedded with paraffin, sectioned, and stained with hematoxylin and eosin, and a part of which is cryopreserved with liquid nitrogen for use in extracting RNA for measuring gene expression with fluorescence quantitative PCR.

KK-Ay mice = test: Mouse trial, KK-Ay diabetes and obesity model mice fed with high-fat diet; assay type: in vivo; settings: for cholesterol in high density lipoprotein in serum / cholesterol in low density/very low density lipoprotein in serum / serum saccharides (glucose) level: 1.3 mg/kg i.p. daily, 14 days; for serum cholesterol / serum triglycerides: ivermectin/derivatives 1.3 mg/kg
Text: In order to detect the efficacy of abamectin/avermectin, ivermectin and the derivative doramectin in the body of a diabetes and obesity mouse model, we choose diabetes and obesity mouse model mice, KK-Ay mice, as the experimental subject.

[1] = tested on: FXR gene deletion homozygous mice (FXR−/−); test: Mouse trial, FXR knockout mice fed with high-fat diet; assay type: in vivo; settings: 1.3 mg/kg i.p. daily, 14 days
Description: as §1

[2] = i.p. daily 14 days, GW4064 30 mg/kg

SMILES	cholesterol level in high density lipoprotein (wild-type C57BL/6J mice)	cholesterol levels in low density and very low density lipoprotein (wild-type C57BL/6J mice)	serum cholesterol level (wild-type C57BL/6J mice)	serum glucose level (wild-type C57BL/6J mice)	serum triglyceride (Tg) level (wild-type C57BL/6J mice)	cholesterol in high density lipoprotein in serum (KK-Ay mice)	cholesterol in low density/very low density lipoprotein in serum (KK-Ay mice)	serum saccharides (glucose) level (KK-Ay mice)	serum cholesterol (KK-Ay mice; [2])	serum triglycerides (KK-Ay mice; [2])	serum free fatty acids (KK-Ay mice; i.p. daily 14 days, ivermectin 1.3 mg/kg, GW4064 30 mg/kg)	serum cholesterol level [1]	serum glucose level [1]
CCC(C)[C@H]1O[C@]2(C=C[C@@H]1C)C[C@@H]1C[C@@H](C/C=C(\C)[C@@H](O[C@H]3C[C@H](OC)[C@@H](O[C@H]4C[C@@H](OC)[C@H](O)[C@@H](C)O4)[C@H](C)O3)[C@@H](C)/C=C/C=C3\CO[C@@H]4[C@H](O)C(C)=C[C@@H](C(=O)O1)[C@]34O)O2 (stereo partly shown) [abamectin/avermectin]	significantly downregulated	downregulated	significantly decreases	significantly decreases	significantly decrease	significantly decrease	significantly decrease	significantly decrease	decreased	significantly decrease	–	–	–
CC(C)c1onc(-c2c(Cl)cccc2Cl)c1COc1ccc(/C=C/c2cccc(C(=O)O)c2)c(Cl)c1 [GW4064]	–	–	–	–	–	–	–	–	significantly decrease	significantly decrease	significantly decrease	–	–
CO[C@H]1C[C@H](O[C@H]2[C@H](C)O[C@@H](O[C@@H]3/C(C)=C/C[C@@H]4C[C@@H](C[C@]5(C=C[C@H](C)[C@@H](C6CCCCC6)O5)O4)OC(=O)[C@@H]4C=C(C)[C@@H](O)[C@H]5OC/C(=C\C=C\[C@@H]3C)[C@]54O)C[C@@H]2OC)O[C@@H](C)[C@@H]1O [doramectin]	significantly downregulated	downregulated	significantly decreases	significantly decreases	significantly decrease	significantly decrease	significantly decrease	significantly decrease	decreased	significantly decrease	–	not producing any significant change	not producing any significant change
